Results from patent EP0055702B1, “Antithrombotic treatment” (priority 1980, dated 1982).
Values joined by “and” are separate entries in the source; they are usually repeats but may differ in a detail not shown here. Equal entries are not always repeated.

Legend:
[1] = tested on: platelet thrombus formation on damaged aortic wall; assay: Indium-111 platelet labelling technique in rabbits; type: in vivo; conditions: intravenous 72.80 mg/kg
Description: In medicine, arterial thrombosis is diagnosable, for example, by clinical manifestations, by arteriography and, recently, by an indium 111 platelet labelling technique (see, for example, the article entitled "Differential Effects of Two Doses of Aspirin on Platelet-Vessel Wall Interaction In Vivo" by K. K. Wu et al being published in the Journal of Clinical Investigation, August, 1981).
Sodium bisulphite was evaluated as an anti-thrombotic agent in vivo using the indium-111 platelet labelling technique in rabbits (see the Wu et al article above cited). The material was administered by intravenous injection (72.80 milligrams per kilogram of animal body weight).

[2] = target: T1, Fibrinogen (Homo sapiens, UniProt P02671+P02675+P02679); assay: Fibrinogen assay, Example 4; type: biochemical; conditions: Control 218; for Fibrogen: solution D
T1 construct: from tissue; host or cells: human plasma
T1 sequence (P02671 20-629 limits assumed): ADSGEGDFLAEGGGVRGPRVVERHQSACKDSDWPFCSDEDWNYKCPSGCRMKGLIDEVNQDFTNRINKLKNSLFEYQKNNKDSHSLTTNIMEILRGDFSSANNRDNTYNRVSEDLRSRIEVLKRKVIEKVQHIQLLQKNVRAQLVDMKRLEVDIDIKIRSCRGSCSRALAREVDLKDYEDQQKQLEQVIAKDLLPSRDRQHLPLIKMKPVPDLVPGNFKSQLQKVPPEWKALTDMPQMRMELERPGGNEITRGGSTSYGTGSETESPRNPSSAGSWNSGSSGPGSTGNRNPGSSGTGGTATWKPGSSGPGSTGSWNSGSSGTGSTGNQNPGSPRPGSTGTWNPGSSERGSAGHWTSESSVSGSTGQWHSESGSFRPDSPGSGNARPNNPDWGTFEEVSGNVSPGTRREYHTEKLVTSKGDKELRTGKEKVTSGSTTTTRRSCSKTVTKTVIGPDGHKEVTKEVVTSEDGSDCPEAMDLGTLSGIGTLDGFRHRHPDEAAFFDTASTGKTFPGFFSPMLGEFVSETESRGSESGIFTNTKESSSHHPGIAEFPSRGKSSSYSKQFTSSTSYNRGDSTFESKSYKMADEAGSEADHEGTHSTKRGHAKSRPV
T1 sequence (P02675 31-491): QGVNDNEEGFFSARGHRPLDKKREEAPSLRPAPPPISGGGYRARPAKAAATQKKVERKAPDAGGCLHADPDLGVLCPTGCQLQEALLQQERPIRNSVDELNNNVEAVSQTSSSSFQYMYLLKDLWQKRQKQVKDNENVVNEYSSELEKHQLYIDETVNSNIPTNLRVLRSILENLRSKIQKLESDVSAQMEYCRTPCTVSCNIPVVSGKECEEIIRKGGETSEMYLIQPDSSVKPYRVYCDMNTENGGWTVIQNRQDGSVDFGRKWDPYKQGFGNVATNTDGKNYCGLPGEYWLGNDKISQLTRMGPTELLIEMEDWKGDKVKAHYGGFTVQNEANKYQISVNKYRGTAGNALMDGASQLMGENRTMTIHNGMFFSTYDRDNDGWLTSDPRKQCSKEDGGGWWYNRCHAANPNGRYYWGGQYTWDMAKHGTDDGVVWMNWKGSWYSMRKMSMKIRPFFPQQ
T1 sequence (P02679 27-453): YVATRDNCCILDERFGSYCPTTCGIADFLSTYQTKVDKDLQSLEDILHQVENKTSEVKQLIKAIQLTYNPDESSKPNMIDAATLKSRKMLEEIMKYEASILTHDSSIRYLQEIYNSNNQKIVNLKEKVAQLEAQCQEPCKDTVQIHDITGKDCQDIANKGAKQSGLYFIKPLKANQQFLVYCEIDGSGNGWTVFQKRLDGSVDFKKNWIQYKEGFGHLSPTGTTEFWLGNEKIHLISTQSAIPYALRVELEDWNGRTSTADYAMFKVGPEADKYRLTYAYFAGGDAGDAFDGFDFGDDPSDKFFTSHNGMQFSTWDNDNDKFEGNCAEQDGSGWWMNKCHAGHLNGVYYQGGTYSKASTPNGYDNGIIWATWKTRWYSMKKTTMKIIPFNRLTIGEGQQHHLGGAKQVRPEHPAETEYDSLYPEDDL
From the text: (§1) The evaluation procedure used is that described in "Human Blood Coagulation, Haemostasis and Thrombosis", edited by Rosemary Biggs, published by Blackwell Scientific Publications, Oxford, England (2nd Edition), pages 670-705, 1976. […]

[3] = tested on: human plasma; assay: Partial Thromboplastin Time, Example 4; type: biochemical
From the text: as §1

[4] = tested on: rats; assay: Rats fed bait containing 0.5% sodium bisulphite; type: in vivo
From the text: Five rats, each in a separate cage, were given a bait containing 0.5 percent by weight of sodium bisulphite. The bait consisted of cracked grains (wheat, corn, millet and corn meal). The amounts of bait eaten were summarized for an eleven day period.

## Sodium bisulphite
[1]; rabbits A, B, per gram dry weight of tissue, Control 72,140± 39,040
  Platelet accumulation II. at normal vessel wall cpm/gm: 98,611 cpm/gm and 83,066 cpm/gm
[1]; rabbits A, B, per gram dry weight of tissue, Control 1,167,820± 21,310
  Platelet accumulation I. at damaged vessel wall cpm/gm: 133,986 cpm/gm and 146,630 cpm/gm
[1]; rabbits A, B, percentage of injected radioactivity per gram dry weight, Control 0.03± 0.02
  Platelet accumulation II. at normal vessel wall %: 0.08%
[1]; rabbits A, B, percentage of injected radioactivity per gram dry weight, Control 0.44± 0.08, 72.8 mg/kg
  Platelet accumulation I. at damaged vessel wall %: 0.11% and 0.15%
[1]; rabbits
  reduction of accumulation of platelet thrombus at the damaged vessel wall: 70%
[2]; Sodium bisulphite 0.01 mg/ml
  Fibrogen: 222 mg%
[2]; Sodium bisulphite 0.05 mg/ml
  Fibrogen: 228 mg%
[2]; Sodium bisulphite 0.1 mg/ml
  Fibrogen: 217 mg%
[2]; Sodium bisulphite 0.5 mg/ml
  Fibrogen: 190 mg%
[2]; Sodium bisulphite 1.0 mg/ml
  Fibrogen: 185 mg%
[2]; Sodium bisulphite 5.0 mg/ml
  Fibrogen: 130 mg%
[2]; chemical grade sodium bisulphite 0.01 mg/ml
  Fibrinogen: 228 mg%
[2]; chemical grade sodium bisulphite 0.05 mg/ml
  Fibrinogen: 245 mg%
[2]; chemical grade sodium bisulphite 0.1 mg/ml
  Fibrinogen: 218 mg%
[2]; chemical grade sodium bisulphite 0.5 mg/ml
  Fibrinogen: 182 mg%
[2]; chemical grade sodium bisulphite 1.0 mg/ml
  Fibrinogen: 184 mg%
[2]; chemical grade sodium bisulphite 5.0 mg/ml
  Fibrinogen: 119 mg%
[3]; Sodium bisulphite 0.01 mg/ml, solution D, Control 12.20
  PTT: 12.33 s
[3]; Sodium bisulphite 0.05 mg/ml, solution D, Control 12.20
  PTT: 12.43 s
[3]; Sodium bisulphite 0.1 mg/ml, solution D, Control 12.20
  PTT: 12.85 s
[3]; Sodium bisulphite 0.5 mg/ml, solution D, Control 12.20
  PTT: 15.43 s
[3]; Sodium bisulphite 1.0 mg/ml, solution D, Control 12.20
  PTT: 22.63 s
[3]; Sodium bisulphite 5.0 mg/ml, solution D, Control 12.20
  PTT: >150 s
[3]; chemical grade sodium bisulphite 0.01 mg/ml, Control 34.67
  PTT: 32.80 s
[3]; chemical grade sodium bisulphite 0.05 mg/ml, Control 34.67
  PTT: 33.77 s
[3]; chemical grade sodium bisulphite 0.1 mg/ml, Control 34.67
  PTT: 34.40 s
[3]; chemical grade sodium bisulphite 0.5 mg/ml, Control 34.67
  PTT: 44.87 s
[3]; chemical grade sodium bisulphite 1.0 mg/ml, Control 34.67
  PTT: 78.46 s
[3]; chemical grade sodium bisulphite 5.0 mg/ml, Control 34.67
  PTT: >150 s
[4]; 2 days, Rat 1 and Rat 4, bait with 0.5% sodium bisulphite
  death of rat: Died
[4]; Rat 5, bait with 0.5% sodium bisulphite
  First day blood factor PT: 27
[4]; Rats 1, 2, 3, bait with 0.5% sodium bisulphite
  First day blood factor PT, increase: 26% increase and 24% increase and 28% increase
[4]; three rats with increased PT
  change in PTT, first day: no apparent change
